ChEMBL document CHEMBL1201862, “PubChem BioAssay data set” (2004)
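Growth conditions: 96-well plates. Treatment: test compound, 48 hours, 5 concentrations. Analysis: linear interpolation between bracketing concentrations; unreached endpoints set to highest concentration. GI50 is the concentration that inhibits growth by half.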 The source made the active and inactive calls. No stated cut-off is given here; in the data, active = GI50 up to about 1.1 µM and inactive = higher.

Assays:
Experiment in all cases: NCI anticancer screen, dose series, 48 h
SR = test system: SR
OVCAR-4 = test system: OVCAR-4
A498 = test system: A498
PC-3 = test system: PC-3
IGROV-1 = test system: IGROV-1
SN12C = test system: SN12C
COLO 205 = test system: COLO 205
SF-539 = test system: SF-539
MCF7 = test system: MCF7
MDA-N = test system: MDA-N
ACHN = test system: ACHN
A549 = test system: A549
UACC-62 = test system: UACC-62
SK-MEL-2 = test system: SK-MEL-2
SNB-75 = test system: SNB-75
UACC-257 = test system: UACC-257
SNB-19 = test system: SNB-19
SK-MEL-28 = test system: SK-MEL-28
CAKI-1 = test system: CAKI-1
MDA-MB-435 = test system: MDA-MB-435
HCT-116 = test system: HCT-116
SF-295 = test system: SF-295
RPMI-8226 = test system: RPMI-8226
EKVX = test system: EKVX
Malme-3M = test system: Malme-3M
NCI-H522 = test system: NCI-H522
HOP-62 = test system: HOP-62
NCI/ADR-RES = test system: NCI/ADR-RES
HT-29 = test system: HT-29
OVCAR-3 = test system: OVCAR-3
DU-145 = test system: DU-145
Hs-578T = test system: Hs-578T
786-0 = test system: 786-0
HL-60 = test system: HL-60
RXF 393 = test system: RXF 393
NCI-H460 = test system: NCI-H460
UO-31 = test system: UO-31
U-251 = test system: U-251
HOP-92 = test system: HOP-92
MDA-MB-231 = test system: MDA-MB-231
HCT-15 = test system: HCT-15
SW-620 = test system: SW-620
OVCAR-5 = test system: OVCAR-5
CCRF-CEM = test system: CCRF-CEM
BT-549 = test system: BT-549
NCI-H23 = test system: NCI-H23
SK-OV-3 = test system: SK-OV-3
KM12 = test system: KM12
HCC 2998 = test system: HCC 2998
SF-268 = test system: SF-268
M14 = test system: M14
T47D = test system: T47D
SK-MEL-5 = test system: SK-MEL-5
OVCAR-8 = test system: OVCAR-8
TK-10 = test system: TK-10
MOLT-4 = test system: MOLT-4
K562 = test system: K562
NCI-H226 = test system: NCI-H226
LOX IMVI = test system: LOX IMVI

In the case of `O=[N+]([O-])c1ccc(N/N=C(\c2ccccc2)c2ccccn2)nc1`, the GI50 (SR) is reported as 1.48 µM (inactive), the GI50 (OVCAR-4) is reported as 18.7 µM (inactive) and the GI50 (A498) is reported as > 100 µM (inactive). The GI50 (PC-3) was 0.92 µM (active), the GI50 (IGROV-1) was 1.11 µM (active) and the GI50 (SN12C) was 0.429 µM (active). The GI50 (COLO 205) was < 0.0391 µM (active), the GI50 (SF-539) was 1.52 µM (inactive) and the GI50 (MCF7) was < 0.0492 µM (active). The GI50 (MDA-N) was 20 µM (inactive), the GI50 (ACHN) was 0.0785 µM (active) and the GI50 (A549) was 4.48 µM (inactive). The GI50 (UACC-62) was 2.5 µM (inactive), the GI50 (SK-MEL-2) was 14.8 µM (inactive) and the GI50 (SNB-75) was 7.06 µM (inactive). For the same compound, the GI50 (UACC-257) was 0.262 µM (active), the GI50 (SNB-19) was 9.48 µM (inactive) and the GI50 (SK-MEL-28) was 9.14 µM (inactive). The GI50 (CAKI-1) was 0.497 µM (active), the GI50 (MDA-MB-435) was 7.41 µM (inactive) and the GI50 (HCT-116) was 0.21 µM (active). The GI50 (SF-295) was 5.32 µM (inactive), the GI50 (RPMI-8226) was 0.59 µM (active) and the GI50 (EKVX) was 0.171 µM (active). For the same compound, the GI50 (Malme-3M) was 0.0367 µM (active), the GI50 (NCI-H522) was 0.0794 µM (active) and the GI50 (HOP-62) was 8.57 µM (inactive). The GI50 (NCI/ADR-RES) was 0.658 µM (active), the GI50 (HT-29) was 0.0253 µM (active) and the GI50 (OVCAR-3) was 0.409 µM (active). For the same compound, the GI50 (DU-145) was 5.53 µM (inactive), the GI50 (Hs-578T) was 4.29 µM (inactive) and the GI50 (786-0) was 0.906 µM (active). The GI50 (HL-60) was < 0.01 µM (active), the GI50 (RXF 393) was 5.56 µM (inactive) and the GI50 (NCI-H460) was 0.957 µM (active). For the same compound, the GI50 (UO-31) was 0.817 µM (active), the GI50 (U-251) was 1.26 µM (inactive) and the GI50 (HOP-92) was 10.5 µM (inactive). For the same compound, the GI50 (MDA-MB-231) was 1 µM (active), the GI50 (HCT-15) was 0.151 µM and the GI50 (SW-620) was 0.223 µM (active). For the same compound, the GI50 (OVCAR-5) was 14.4 µM (inactive), the GI50 (CCRF-CEM) was < 0.0218 µM (active) and the GI50 (BT-549) was 15.5 µM (inactive). For the same compound, the GI50 (NCI-H23) was 0.845 µM (active), the GI50 (SK-OV-3) was 4.86 µM (inactive) and the GI50 (KM12) was 6.62 µM (inactive). For the same compound, the GI50 (HCC 2998) was 5.46 µM (inactive), the GI50 (SF-268) was 2.51 µM (inactive) and the GI50 (M14) was 0.182 µM (active). For the same compound, the GI50 (T47D) was 0.0107 µM (active), the GI50 (SK-MEL-5) was 1.85 µM (inactive) and the GI50 (OVCAR-8) was 0.914 µM (active).

In the case of `COc1cc(C)cc2c(-c3c(O)cc(O)c4c3C[C@H](C)N[C@H]4C)cc(-c3cc(-c4c(O)cc(O)c5c4C[C@H](C)N[C@H]5C)c4cc(C)cc(OC)c4c3O)c(O)c12`, the GI50 (SR) is reported as > 100 µM (inactive), the GI50 (OVCAR-4) is reported as > 100 µM (inactive) and the GI50 (A498) is reported as > 100 µM (inactive). The GI50 (PC-3) was > 100 µM (inactive), the GI50 (IGROV-1) was > 100 µM (inactive) and the GI50 (TK-10) was > 100 µM (inactive). The GI50 (SN12C) was > 100 µM (inactive), the GI50 (COLO 205) was > 100 µM (inactive) and the GI50 (SF-539) was > 100 µM (inactive). For the same compound, the GI50 (MCF7) was > 100 µM (inactive), the GI50 (MDA-N) was 52 µM (inactive) and the GI50 (ACHN) was > 100 µM (inactive). For the same compound, the GI50 (MOLT-4) was > 100 µM (inactive), the GI50 (A549) was > 100 µM (inactive) and the GI50 (K562) was > 100 µM (inactive). The GI50 (UACC-62) was > 100 µM (inactive), the GI50 (SK-MEL-2) was > 100 µM (inactive) and the GI50 (SNB-75) was > 100 µM (inactive). The GI50 (UACC-257) was > 100 µM (inactive), the GI50 (SNB-19) was > 100 µM (inactive) and the GI50 (SK-MEL-28) was > 100 µM (inactive). For the same compound, the GI50 (CAKI-1) was > 100 µM (inactive), the GI50 (MDA-MB-435) was 54.3 µM (inactive) and the GI50 (HCT-116) was 54.1 µM (inactive). For the same compound, the GI50 (SF-295) was 66.4 µM (inactive), the GI50 (RPMI-8226) was 83.4 µM (inactive) and the GI50 (EKVX) was > 100 µM (inactive). The GI50 (Malme-3M) was > 100 µM (inactive), the GI50 (NCI-H522) was > 100 µM (inactive) and the GI50 (HOP-62) was 72.3 µM (inactive). For the same compound, the GI50 (NCI/ADR-RES) was > 100 µM (inactive), the GI50 (HT-29) was 36 µM (inactive) and the GI50 (OVCAR-3) was > 100 µM (inactive). For the same compound, the GI50 (DU-145) was > 100 µM (inactive), the GI50 (Hs-578T) was > 100 µM (inactive) and the GI50 (786-0) was 26.9 µM (inactive). For the same compound, the GI50 (HL-60) was > 100 µM (inactive), the GI50 (RXF 393) was > 100 µM (inactive) and the GI50 (NCI-H460) was 75.3 µM (inactive). The GI50 (UO-31) was > 100 µM (inactive), the GI50 (U-251) was > 100 µM (inactive) and the GI50 (HOP-92) was > 100 µM (inactive). The GI50 (MDA-MB-231) was > 100 µM (inactive), the GI50 (HCT-15) was > 100 µM and the GI50 (SW-620) was > 100 µM (inactive). The GI50 (OVCAR-5) was 21.4 µM (inactive), the GI50 (CCRF-CEM) was > 100 µM (inactive) and the GI50 (BT-549) was > 100 µM (inactive). The GI50 (NCI-H23) was > 100 µM (inactive), the GI50 (SK-OV-3) was > 100 µM (inactive) and the GI50 (KM12) was 56.2 µM (inactive). For the same compound, the GI50 (HCC 2998) was > 100 µM (inactive), the GI50 (NCI-H226) was > 100 µM (inactive) and the GI50 (SF-268) was > 100 µM (inactive). The GI50 (M14) was > 100 µM (inactive), the GI50 (T47D) was 63.8 µM (inactive) and the GI50 (SK-MEL-5) was > 100 µM (inactive). For the same compound, the GI50 (OVCAR-8) was > 100 µM (inactive).

With `O=C1O/C(=C\c2ccccc2)N(c2ccccc2)C1=O` the GI50 (SR) was > 100 µM (inactive), the GI50 (OVCAR-4) was > 100 µM (inactive) and the GI50 (A498) was > 100 µM (inactive). For the same compound, the GI50 (PC-3) was > 100 µM (inactive), the GI50 (IGROV-1) was > 100 µM (inactive) and the GI50 (TK-10) was > 100 µM (inactive). The GI50 (SN12C) was > 100 µM (inactive), the GI50 (COLO 205) was > 100 µM (inactive) and the GI50 (LOX IMVI) was > 100 µM (inactive). The GI50 (MCF7) was 51.8 µM (inactive), the GI50 (MDA-N) was > 100 µM (inactive) and the GI50 (ACHN) was > 100 µM (inactive). The GI50 (MOLT-4) was > 100 µM (inactive), the GI50 (A549) was > 100 µM (inactive) and the GI50 (K562) was > 100 µM (inactive). For the same compound, the GI50 (UACC-62) was > 100 µM (inactive), the GI50 (SK-MEL-2) was > 100 µM (inactive) and the GI50 (SNB-75) was > 100 µM (inactive). For the same compound, the GI50 (UACC-257) was > 100 µM (inactive), the GI50 (SNB-19) was > 100 µM (inactive) and the GI50 (SK-MEL-28) was > 100 µM (inactive). The GI50 (CAKI-1) was > 100 µM (inactive), the GI50 (MDA-MB-435) was > 100 µM (inactive) and the GI50 (HCT-116) was > 100 µM (inactive). For the same compound, the GI50 (RPMI-8226) was > 100 µM (inactive), the GI50 (EKVX) was > 100 µM (inactive) and the GI50 (NCI-H522) was > 100 µM (inactive). For the same compound, the GI50 (HOP-62) was > 100 µM (inactive), the GI50 (NCI/ADR-RES) was > 100 µM (inactive) and the GI50 (HT-29) was > 100 µM (inactive). For the same compound, the GI50 (OVCAR-3) was > 100 µM (inactive), the GI50 (DU-145) was > 100 µM (inactive) and the GI50 (Hs-578T) was > 100 µM (inactive). The GI50 (786-0) was > 100 µM (inactive), the GI50 (HL-60) was > 100 µM (inactive) and the GI50 (RXF 393) was > 100 µM (inactive). For the same compound, the GI50 (NCI-H460) was > 100 µM (inactive), the GI50 (UO-31) was > 100 µM (inactive) and the GI50 (U-251) was > 100 µM (inactive). The GI50 (HOP-92) was > 100 µM (inactive), the GI50 (MDA-MB-231) was > 100 µM (inactive) and the GI50 (HCT-15) was > 100 µM. For the same compound, the GI50 (SW-620) was > 100 µM (inactive), the GI50 (OVCAR-5) was > 100 µM (inactive) and the GI50 (CCRF-CEM) was > 100 µM (inactive). The GI50 (BT-549) was > 100 µM (inactive), the GI50 (NCI-H23) was > 100 µM (inactive) and the GI50 (SK-OV-3) was > 100 µM (inactive). The GI50 (KM12) was > 100 µM (inactive), the GI50 (HCC 2998) was > 100 µM (inactive) and the GI50 (NCI-H226) was > 100 µM (inactive). The GI50 (SF-268) was > 100 µM (inactive), the GI50 (M14) was > 100 µM (inactive) and the GI50 (T47D) was > 100 µM (inactive). The GI50 (SK-MEL-5) was > 100 µM (inactive) and the GI50 (OVCAR-8) was > 100 µM (inactive).
